From US10993957B2 (NuCana plc, priority 2011, dated 2021)
Read-outs that look alike come from different tables or passages of the source.

What was measured:
[1] = test system: L1210/0; assay: Cytostatic assay, L1210/0 cells; assay type: cell-based, murine
Excerpt: (§1) The cell lines employed were L1210/0 (a leukemia cell line), FM3A/0 (a breast cancer cell line), Cem/0 (an acute lymphoblastic leukemia cell line) and HeLa (a cervical cell line).

[2] = test system: L1210/TK^−; assay: Cytostatic assay, thymidine kinase-deficient L1210/TK^− cells; assay type: cell-based, murine
[3] = test system: Cem/0; assay: Cytostatic assay, CEM/0 cells; assay type: cell-based, human; conditions: for IC50: read-out: IC50 Cem/0; for CC50: read-out: CC50 Cem/0
Excerpt: as §1

[4] = test system: Cem/TK^−; assay: Cytostatic assay, thymidine kinase-deficient CEM/TK^− cells; assay type: cell-based, human; conditions: for IC50: read-out: IC50 Cem/TK^−; for CC50: read-out: CC50 Cem/TK^−
[5] = test system: HeLa; assay: Cytostatic assay, HeLa cells; assay type: cell-based; conditions: for IC50: read-out: IC50 HeLa; for CC50: read-out: CC50 HeLa
Excerpt: as §1

[6] = test system: HeLa/TK^−; assay: Cytostatic assay, HeLa/TK^− cells; assay type: cell-based; conditions: for IC50: read-out: IC50 HeLa/TK^−; for CC50: read-out: CC50 HeLa/TK^−
Excerpt: as §1

[7] = test system: L1210.Hyor; assay: Cytostatic assay, Mycoplasma hyorhinis-infected L1210 cells; conditions: for % Retention: CC50 L1210 × 100 ÷ CC50 L1210/Hyor
Excerpt: Murine leukaemia L1210/0 and human T-lymphocyte CEM/0 cells were obtained from the American Type Culture Collection (ATCC) (Rockville, Md.). Human glioblastoma U87 cells were kindly provided by Dr. E. Menue (Institut Pasteur, Paris, France). […] S. Eriksson (currently at Uppsala University, Uppsala, Sweden) and Prof A. Karlsson (Karolinska Institute, Stockholm, Sweden). […] All cells were maintained in Dulbecco's modified Eagle's medium (DMEM) (Invitrogen, Carlsbad, Calif.) with 10% foetal bovine serum (FBS) (Biochrom AG, Berlin, Germany), 10 mM Hepes and 1 mM Sodium Pyruvate (Invitrogen). Cells were grown at 37° C. in a humidified incubator with a gas phase of 5% CO2.
Monolayer cells (U87 and U87.Hyor) were seeded in 48-well microtiter plates (Nunc™, Roskilde, Denmark) at 10,000 cells/well. After 24 hours, an equal volume of fresh medium containing the test compounds was added. On day 5, cells were trypsinized and counted in a Coulter counter (Analis, Suarlée, Belgium). Suspension cells (L1210/0, L1210/TK^−, L1210.Hyor, CEM/0, CEM/TK^−) were seeded in 96-well microtiter plates (Nunc™) at 60,000 cells/well in the presence of a given amount of the test compounds. The cells were allowed to proliferate for 48 h (L1210) or 72 hours (CEM) and were then counted in a Coulter counter.
Samples were also assayed for their % retention of activity in mycoplasma infected cells.
The L1210/0 cell cultures were infected with the mycoplasma species M. hyorhinis (cells designated: L1210.Hyor).

[8] = Table 6, read-out: IC50 L1210/0
[9] = Table 7, read-out: IC50 L1210/0
[10] = Table 6, read-out: IC50 L1210/TK^−
[11] = read-out: IC50 L1210.Hyor, Table 7
[12] = Mus musculus, L1210/0, Table 6, read-out: IC50 L1210/0
[13] = Mus musculus, L1210/0, Table 7, read-out: IC50 L1210/0
[14] = Mus musculus, L1210, Table 6, read-out: IC50 L1210/TK^−
[15] = Homo sapiens, CCRF-CEM, Table 6
[16] = Homo sapiens, CEM-TK(-), Table 6
[17] = Mus musculus, L1210, read-out: IC50 L1210.Hyor
[18] = Mus musculus, L1210/0, Table 1, read-out: CC50 L1210/0
[19] = Mus musculus, L1210, Table 1, read-out: CC50 L1210/TK^−
[20] = Homo sapiens, CCRF-CEM, Table 1
[21] = Homo sapiens, CEM-TK(-), Table 1

SMILES	IC50 [1, 8] [µM]	IC50 [1, 9] [µM]	IC50 [2, 10] [µM]	IC50 ([3]; Table 6) [µM]	IC50 ([4]; Table 6) [µM]	IC50 ([5]; Table 6) [µM]	IC50 ([6]; Table 6) [µM]	IC50(L1210.Hyor)/IC50(L1210/0) ([7]; Table 7)	IC50 [7, 11] [µM]	IC50 [7, 17] [µM]	CC50 [1, 18] [µM]	CC50 [2, 19] [µM]	CC50 [3, 20] [µM]	CC50 [4, 21] [µM]	further results
CCCCCOC(=O)C(NP(=O)(OCC1OC(n2cc(F)c(=O)[nH]c2=O)CC1O)Oc1cccc2ccccc12)C(C)CC (mixture of isomers) [Nap Pnt Ile]	0.22 ± 0.12	0.42 ± 0.021	12 ± 2	0.46 ± 0.11	17 ± 1	0.3 ± 0.02	11 ± 1	1.67	0.7 ± 0.074						
CCCCCOC(=O)C(Cc1ccccc1)NP(=O)(OCC1OC(n2cc(F)c(=O)[nH]c2=O)CC1O)Oc1cccc2ccccc12 (mixture of isomers) [Nap Pnt Phe]	0.026 ± 0.001	0.03 ± 0.0039	2.9 ± 1.2	0.1	8.3 ± 1	0.04	6.6 ± 0.5	4.67	0.14 ± 0.007						
CCC(C)C(NP(=O)(OCC1OC(n2cc(F)c(=O)[nH]c2=O)CC1O)Oc1ccccc1)C(=O)OCc1ccccc1 (mixture of isomers) [Ph Bn Ile]	0.076 ± 0.022	0.98 ± 0.39	1.1 ± 0.1	1 ± 0.1	30 ± 10	0.71 ± 0.15	25 ± 11	2.2	2.2 ± 0.031						
C[C@H](NP(=O)(OC[C@H]1O[C@@H](n2cc(F)c(=O)[nH]c2=O)CC1O)Oc1cccc2ccccc12)C(=O)OC1Cc2ccccc2C1 (stereo partly drawn) [CPF597, 5-Fluoro-2′-deoxyuridine-5′-O-[1-naphthyl-(2-indanoxy-L-alaninyl)]phosphate]								1.08		0.042 ± 0.04					IC50 [1, 12]: 0.021 ± 0.002 µM; IC50 [1, 13]: 0.039 ± 0.019 µM; IC50 [2, 14]: 40 µM; IC50 [3, 15]: 0.079 ± 0.018 µM; IC50 [4, 16]: 1 ± 0.2 µM; IC50 ([5]; Homo sapiens, HeLa, Table 6): 0.1 ± 0.06 µM; IC50 ([6]; Homo sapiens, HeLa, Table 6): 7.1 ± 2.1 µM
COC(=O)[C@H](C)NP(=O)(OC[C@H]1O[C@@H](n2cc(F)c(=O)[nH]c2=O)CC1O)Oc1ccccc1 (stereo partly drawn) [CPF 382, 5-Fluoro-2′-deoxyuridine-5′-O-[phenyl(methoxy-L-alaninyl)] phosphate, reference compound]								22		0.87 ± 0.28	0.0255	37.8	0.346	32.7	IC50 [1, 12]: 0.022 ± 0.007 µM; IC50 [1, 13]: 0.04 ± 0.016 µM; IC50 [2, 14]: 41 ± 3 µM; IC50 [3, 15]: 0.7 ± 0.37 µM; IC50 [4, 16]: 35 ± 12 µM; IC50 ([5]; Homo sapiens, HeLa, Table 6): 0.28 ± 0.14 µM; IC50 ([6]; Homo sapiens, HeLa, Table 6): 4.7 ± 0.4 µM
CCOC(=O)[C@H](C)NP(=O)(O)OCC1OC(n2cc(F)c(=O)[nH]c2=O)CC1O (stereo partly shown) [CPF 437, reference compound]											36 ± 5	> 100	> 100	> 100	CC50 ([5]; Homo sapiens, HeLa, Table 1): > 100 µM; CC50 ([6]; Homo sapiens, HeLa, Table 1): > 100 µM
CC(C)OC(=O)[C@H](C)NP(=O)(O)OCC1OC(n2cc(F)c(=O)[nH]c2=O)CC1O (stereo partly shown) [CPF 438, reference compound]											0.12 ± 0.02	51 ± 9	2.1 ± 0.6	32 ± 2	CC50 ([5]; Homo sapiens, HeLa, Table 1): 3.7 ± 0.5 µM; CC50 ([6]; Homo sapiens, HeLa, Table 1): 72 µM
C[C@H](NP(=O)(OC[C@H]1O[C@@H](n2cc(F)c(=O)[nH]c2=O)C[C@@H]1O)Oc1ccccc1)C(=O)OC1CCCCC1 (stereo partly drawn) [CPF 508, 5-Fluoro-2′deoxyuridine-5′-O-[phenyl (cyclohexoxy-L-alaninyl)] phosphate]	0.039 ± 0.001	0.032 ± 0.005	0.14 ± 0.02	0.17 ± 0.07	1.2 ± 0.01	0.18 ± 0.05	5.9 ± 0.4	1.25	0.04 ± 0.016						
CC(C)C(NP(=O)(OCC1OC(n2cc(F)c(=O)[nH]c2=O)CC1O)Oc1cccc2ccccc12)C(=O)OC1CCCCC1 (stereo not shown) [CPF 576]	1.1 ± 0.5	1.2 ± 0.17	35 ± 8	0.8 ± 0.28	46 ± 14	0.67 ± 0.03	27 ± 6	1.08	1.29 ± 0.29						CC50 ([1]; Table 2, mycoplasma negative cells, read-out: CC50 L1210): 1.4 µM; % Retention [7]: 51%; CC50 ([7]; read-out: CC50 L1210/Hyor, Table 2, mycoplasma positive cells): 2.73 µM
O=C(OCc1ccccc1)C1CCCN1P(=O)(OC[C@H]1O[C@@H](n2cc(F)c(=O)[nH]c2=O)CC1O)Oc1cccc2ccccc12 (stereo partly drawn) [CPF 577, 5-Fluoro-2′-deoxyuridine-5′-O-[1-naphthyl(benzoxy-L-prolinyl)] phosphate]								2.5		0.65 ± 0.07					CC50 ([1]; Mus musculus, L1210/0, read-out: CC50 L1210): 0.23 µM; CC50 ([1]; Mus musculus, L1210/0, read-out: CC50 L1210/0): 0.21 ± 0.08 µM; IC50 ([1]; Mus musculus, L1210/0, read-out: IC50 L1210/0, Table 6): 0.21 ± 0.08 µM; IC50 ([1]; Mus musculus, L1210/0, read-out: IC50 L1210/0, Table 7): 0.26 ± 0.055 µM; CC50 ([2]; Mus musculus, L1210, read-out: CC50 L1210/TK^−): 25 ± 8 µM; IC50 ([2]; Mus musculus, L1210, read-out: IC50 L1210/TK^−): 25 ± 8 µM; CC50 ([3]; Homo sapiens, CCRF-CEM): 0.89 ± 0.35 µM; IC50 ([3]; Homo sapiens, CCRF-CEM): 0.89 ± 0.35 µM; CC50 ([4]; Homo sapiens, CEM-TK(-)): 32 ± 9 µM; IC50 ([4]; Homo sapiens, CEM-TK(-)): 35 ± 9 µM; CC50 ([5]; Homo sapiens, HeLa): 1.2 µM; IC50 ([5]; Homo sapiens, HeLa): 1.2 µM; CC50 ([6]; Homo sapiens, HeLa): 26 ± 1 µM; IC50 ([6]; Homo sapiens, HeLa): 26 ± 1 µM; % Retention [7]: 36%; CC50 ([7]; Mus musculus, L1210, read-out: CC50 L1210/Hyor): 0.63 µM
